Assays:
[1] = system: IL-6 release of primary MDS patient PBMCs stimulated with LPS; assay: IL-6 release of LPS-stimulated primary MDS patient PBMCs, electrochemiluminescence immunoassay (nine-point titration); type: cell-based, human; conditions: n=2 donors, FIG. 1
Method: This study was performed to evaluate the anti-inflammatory activity of pelabresib on MDS patient cells from different donors. The NF-kB pathway is central in regulating cytokines such as TNF-α, IL-6, and IL-8 which are elevated in MDS patients and play role in the pathogenesis of myelodysplastic syndromes (Ref: e.g. doi: 10.1097/MD.0000000000015844). Primary MDS patient samples (cryopreserved peripheral blood mononuclear cells (PBMCs)) were purchased from Discovery Life Sciences. For sample selection, we chose patients with low blast count (ideally below 5%), excluded patients with multilineage dysplasia and (if available) checked blood parameters such as white blood cell count and disease staging notes in order to select patients that show LR-MDS characteristics. Freshly thawed PBMCs were seeded at 50 000 cells/well in a 96-well flat bottom plate. 0.001 μg/mL lipopolysaccharide (LPS-B5, Invivogen) were added to induce IL-6 production. […] After centrifugation, the supernatant of the cells was collected and IL-6 protein in the supernatant was quantified using Human IL-6 Kit (V-PLEX, Meso Scale Discovery). The assay plates were read on a Meso Sector S600. […] The half maximal inhibitory concentration (IC50) was calculated by logarithmic transformation of the compound concentrations and applying “log(inhibitor) vs. response—variable slope (four parameters)”—function.

[2] = system: IFNγ release of primary MDS patient PBMCs stimulated with LPS; assay: Cytokine release of LPS-stimulated primary MDS patient PBMCs (eight-point titration): IFNγ; type: cell-based, human; conditions: 5 μM to 8.2 nM, normalized to DMSO only, n=7-10 donors, FIG. 3
Method: (§1) Primary MDS patient samples (cryopreserved peripheral blood mononuclear cells (PBMCs)) were purchased from Discovery Life Sciences. For sample selection, we chose patients with low blast count (ideally below 5%), excluded patients with multilineage dysplasia and (if available) checked blood parameters such as white blood cell count and disease staging notes in order to select patients that show LR-MDS characteristics. Freshly thawed PBMCs were seeded at 50 000 cells/well in a 96-well flat bottom plate. 0.001 μg/mL lipopolysaccharide (LPS-B5, Invivogen) were added to induce IL-6 production. […] After centrifugation, the supernatant of the cells was collected and IL-6 protein in the supernatant was quantified using Human IL-6 Kit (V-PLEX, Meso Scale Discovery). The assay plates were read on a Meso Sector S600. […] The half maximal inhibitory concentration (IC50) was calculated by logarithmic transformation of the compound concentrations and applying “log(inhibitor) vs. response—variable slope (four parameters)”—function. […] After centrifugation, the supernatant of the cells was collected and IFNγ, TNFα, IL-6, IL-8 or IL-10 protein in the supernatant was quantified using Proinflammatory Panel 1 Human Kit (IFNγ, TNFα, IL-6 and IL-10) or Human IL-8 Kit (both V-PLEX, Meso Scale Discovery). The assay plates were read on a Meso Sector S600. […]

[3] = system: TNFα release of primary MDS patient PBMCs stimulated with LPS; assay: Cytokine release of LPS-stimulated primary MDS patient PBMCs (eight-point titration): TNFα; type: cell-based, human; conditions: 5 μM to 8.2 nM, normalized to DMSO only, n=7-10 donors, FIG. 3
Method: as §1

[4] = system: IL-6 release of primary MDS patient PBMCs stimulated with LPS; assay: Cytokine release of LPS-stimulated primary MDS patient PBMCs (eight-point titration): IL-6; type: cell-based, human; conditions: 5 μM to 8.2 nM, normalized to DMSO only, n=7-10 donors, FIG. 3
Method: as §1

[5] = system: IL-8 release of primary MDS patient PBMCs stimulated with LPS; assay: Cytokine release of LPS-stimulated primary MDS patient PBMCs (eight-point titration): IL-8; type: cell-based, human; conditions: 5 μM to 8.2 nM, normalized to DMSO only, n=7-10 donors, FIG. 3
Method: as §1

[6] = system: IL-10 release of primary MDS patient PBMCs stimulated with LPS; assay: Cytokine release of LPS-stimulated primary MDS patient PBMCs (eight-point titration): IL-10; type: cell-based, human; conditions: 5 μM to 8.2 nM, normalized to DMSO only, n=7-10 donors, FIG. 3
Method: as §1

[7] = system: CD34+ stem cells derived from LR-MDS donors; assay: Erythropoiesis of hematopoietic stem cells (CD34+) isolated from MDS patient bone marrow, flow cytometry; type: cell-based, human; conditions: pelabresib monohydrate 500 nM to 31.25 nM tested; FIG. 2 at 250 nM with erythroid expansion supplement, day 7, n=2 donors
Description: Primary MDS patient samples (cryopreserved bone marrow mononuclear cells (BMMCs)) were purchased from Discovery Life Sciences. For sample selection, we chose patients with low blast count (ideally below 5%), excluded patients with multilineage dysplasia and (if available) checked blood parameters such as white blood cell count and disease staging notes in order to select patients that show LR-MDS characteristics. Hematopoietic stem cells (CD34+) were isolated with EasySep Human CD34+ selection Kit II (StemCell Technologies) using freshly thawed cells. Cells were seeded at 1000 cells/well (for erythropoiesis) or 2500 cells/well (for CC100 differentiation mix) in a 96-flat-well plate. Differentiation cocktails StemSpan™ Erythroid Expansion Supplement (for Erythropoieses) or StemSpan™ CC100 (differentiation mix) were added according to the manufacturer's instructions. A 5-point titration series of pelabresib monohydrate with concentrations ranging from 500 nM to 31.25 nM was tested in duplicate. “DMSO only” treated wells served as control and were also used to prepare flow cytometry controls (such as FMOs). […] On day 7 cells were analysed via flow cytometry. […] Among the viable cells the percentage of CD34+CD71+ (megakaryocyte-erythroid progenitors (MEP)) and percentage of CD34−CD71+ (pro-erythroblasts/erythroblasts (pro-EB/EB)) was determined and depicted in GraphPad Prism 8 per donor.

advanced MF patients = conditions: cited from earlier work
[8] = system: transfusion dependent MF patients; conditions: Arm 2, pelabresib in addition to ruxolitinib; cited from earlier work
[9] = system: erythrocyte progenitors in bone marrow biopsy; conditions: semi-quantitative CD71 IHC, baseline vs Week 24, 22 out of 37; cited from earlier work
[10] = system: CD34+ cells isolated from blood samples of healthy donors and MF patients; conditions: cited from earlier work
[11] = system: inflammatory cytokine regulated by the NF-κB pathway; conditions: lymphoma and MF patients; cited from earlier work

SMILES: Cc1noc2c1-c1ccccc1C(c1ccc(Cl)cc1)=N[C@H]2CC(N)=O [pelabresib, 2-((4S)-6-(4-chlorophenyl)-1-methyl-4H-benzo[c]isoxazolo[4,5-e]azepin-4-yl)acetamide]
- IL-6 release in donor PBMCs ([1]; 5 μM to 3.3 nM, dose dependent): suppressed IL-6 release
- IC50 ([1]; Homo sapiens, PBMC, 0.001 μg/mL LPS, approx. 18 hours, normalized to DMSO only control): 248 nM
- release of IFNγ [2]: suppressed release
- release of TNFα [3]: suppressed release
- release of IL-6 [4]: suppressed release
- release of IL-8 [5]: suppressed release
- release of IL-10 [6]: suppressed release
- differentiation of CD34+ stem cells towards erythropoiesis [7]: enhanced the differentiation
- median duration of RBC-TI (advanced MF patients; Arm 1, monotherapy): 44 weeks
- transfusion dependent relapsed/refractory MF patients who achieved RBC-TI ≥12 weeks (advanced MF patients; Arm 1, monotherapy): 21%
- patients who achieved ≥1.5 g/dL increase in Hgb levels without transfusion (advanced MF patients; monotherapy, 11 out of 19): 57.9%
- median duration of RBC-TI [8]: 39 weeks
- transfusion dependent MF patients who achieved RBC-TI ≥12 weeks [8]: 36%
- patients with an increase in erythrocyte progenitors [9]: 59%
- erythrocyte maturation ([10]; CD34+ cells from healthy donors and MF patients, cytokine cocktail): promotes erythrocyte maturation
- suppressive effects of ruxolitinib on erythroid differentiation ([10]; in the presence of ruxolitinib, dose-dependent): rescued the suppressive effects
- levels of inflammatory cytokine regulated by the NF-κB pathway [11]: can decrease the levels
